Where “and” joins values, the source holds several entries; their conditions need not be identical. Identical values can stand only once.
Columns and labels:
[1] = Acute oral toxicity, Hodge and Sterner toxicity scale; settings: in vivo, rat, inferred from LD10 of ref 49
Text: The lethal dose 10% (LD 10; the dose at which 10% of the individuals die)

[2] = system: E. coli; assay: Fluorescence microscopic analysis of propidium iodide-stained E. coli (membrane integrity); assay type: cell-based, Escherichia coli; settings: with increasing 2,6-DCQ dose
Experimental: The E. coli cells in the control and disinfected samples were pelleted by centrifugation at 8000×g (5 min, 4 °C) and resuspended in 200 μL PBS (0.1 M, pH 7.2). Propidium iodide[54] was added to the cell suspension at a concentration of 75 μM. After propidium iodide staining in darkness for 30 min, the samples were washed twice with PBS and mounted on glass slides. The samples were then examined using a fluorescence microscope (Eclipse Ti, Nikon, Japan). The fluorescence intensity was semi-quantified with ImageJ software (National Institutes of Health, Bethesda, MD).

[3] = Degradation of 2,6-DCQ in phosphate-buffered ultrapure water (pH 8.2) in darkness; assay type: physicochemical
Experimental: For the stability of 2,6-DCQ in aquatic environments, we used seawater because seawater
investigate the effect of chloride ions on the stability of 2,6-DCQ, we have conducted the
degradation experiments of 2,6-DCQ in seawater (pH 8.2) and ultrapure water (added with 4 mM
phosphate buffer at pH 8.2) in darkness.
Lines 185–188 in the revision-marked manuscript, “We also investigated the effect of the high
chloride level in seawater on the degradation of 2,6-DCQ in darkness.

[4] = Real-time stability testing of 2,6-DCQ (solid form, 2-propanol solution); assay type: physicochemical; settings: for Time remaining stable: room temperature
Experimental: According to the U.S. Food and Drug Administration guidance, 2,6-DCQ in solid form or solution form (using 2-propanol as the solvent, a common ingredient in antiseptic liquids and hand sanitizers) was kept at room temperature (22 ± 1 °C) and 65 ± 5% of relative humidity for stability testing. The concentrations of 2,6-DCQ at different storage times were determined by an Agilent HPLC equipped with a UV detector at 280 nm. A disinfectant product is considered stable for a certain storage time if its concentration remains ≥90% of the initial concentration.

[5] = system: aquatic invertebrates; design: method as in earlier work; settings: USEPA; cited from earlier work
[6] = system: freshwater fish; design: method as in earlier work; settings: USEPA; cited from earlier work

Compound | LD50 [1] [mg/kg] | Propidium iodide fluorescence intensity relative to control sample [2] | Ln (C/C0) ([3]; pH 8.2 in phosphate-buffered water, darkness, 0 h) | Effect of chloride ions on degradation ([3]; seawater vs phosphate-buffered water, pH 8.2, darkness) | Time remaining stable ([4]; in 2-propanol) | Time remaining stable ([4]; solid form) | C/C0 ([4]; solid form, storage time 0 month) | C/C0 ([4]; solid form, storage time 16 month) | C/C0 ([4]; solid form, storage time 36 month) | C/C0 ([4]; solution form (2-propanol), storage time 0 month) | C/C0 ([4]; solution form (2-propanol), storage time 2.5 month) | C/C0 ([4]; solution form (2-propanol), storage time 7 month) | C/C0 ([4]; solution form (2-propanol), storage time 10 month) | C/C0 ([4]; solution form (2-propanol), storage time 12.5 month) | Toxicity rating to aquatic invertebrates [5] | Toxicity rating to freshwater fish [6]
O=C1C=C(Cl)C(=O)C(Cl)=C1 [2,6-DCQ, 2,6-dichlorobenzoquinone] | ≥ 1000 | 3.5–59.2 times | 0 | no discernible effect | over 7 months | over 36 months | 1 | 1.072 and 1.01 | 1.029 and 1.0188 | 1 | 0.9898 | 0.9151 | 0.8855 | 0.8301 | – | –
Cc1cc(O)cc(C)c1Cl [PCMX, para-chloro-meta-xylenol, reference compound] | – | – | – | – | – | – | – | – | – | – | – | – | – | – | moderately toxic | highly toxic
